From patent US8822482B2, “Icotinib hydrochloride, synthesis, crystalline forms, pharmaceutical compositions, and uses thereof” (Beta Pharma, Inc., priority 2008, dated 2014)
Structures can show the parent of a compound that is named as a salt.

Legend:
[1] = test system: human A431 (human epidermoid carcinoma cell line) xenograft tumor; experiment: Tumor inhibition on human A431 xenograft in nude mice; type: in vivo, BALB/C nude mice
Excerpt: This was a preliminary study to compare Icotinib hydrochloride Crystalline Form I with erlotinib hydrochloride on inhibition of human A431 (human epidermoid carcinoma cell line) xenograft tumor.
Methods: The high EGFR-expressing human A431 (human epidermoid carcinoma cell line) cell line was selected for the xenograft study.
Tumor transplantation method: A431 human epidermoid cancer cells were inoculated subcutaneously in the right armpit of BALB/C nude mice to generate tumor nodules. These nodules were harvested, cut into 6 mm^3 blocks for routine inoculation and implanted into each mouse for the study. When tumors reached approximately 20 mm^3 in size (6-7 days), the animals were randomly divided into 4 groups of 6-9 animals/each group and body weights were recorded. The groups consisted of a control group (no drug treatment), an erlotinib hydrochloride treatment group (200 mg/kg) and high and low dose Icotinib hydrochloride Crystalline Form I treatment groups (200 and 50 mg/kg). Drugs were administered by oral gavage once daily; dosing frequency depended on the individual case for tumor growth. Tumor volume [tumor volume (V)=tumor size (L)×short diameter of tumor (S)^2/2] was measured using calipers once every 3 days. The animals were sacrificed 24-hour after the last drug administration and weighed. The tumor was removed and weighed to accurately calculate the tumor size. All group data was analyzed using the t test. If the p value was <0.05, it was considered to be statistically significant. Efficacy determination: tumor inhibition rate=[1−treatment group mean tumor weight (T)/control group mean tumor weight (C)]×100%

[2] = Pharmacokinetic study of the different crystalline forms and the free base in rats; type: in vivo, Wistar rats; conditions: fasted Wistar rats, oral suspension, dose equivalent to 35 mg/kg Icotinib hydrochloride, plasma
Procedure: Drugs and reagents: Icotinib (free base) and Icotinib hydrochloride crystalline forms I, II, III, and IV were ground to fine particles. The material content (purity) was not less than 99.0%. Sodium carboxymethyl cellulose was medical supply graded. Experimental animals: Wistar rats, male and female, 150-220 g each. Pharmaceutical preparation: Weigh the appropriate amount of each substance and add sodium carboxymethyl cellulose to 0.5%. Prepare a suspension at a final concentration of 3.5 mg/mL in water. Administration and sample collection: Each suspension was administered orally to fasted Wistar rats at a dose equivalent to 35 mg/kg Icotinib hydrochloride in a dose volume of 10 ml/kg. […] After purification, samples were analyzed by high performance liquid chromatography. The chromatographic conditions utilized C18-silane bonded silica as stationary phase, 0.02 mol/L of sodium dihydrogen phosphate in acetonitrile (40:60, using sodium hydroxide solution to adjust pH to 5.0) as the mobile phase and a detection wavelength of 334 nm.

Row | Compound | body weight and appearance at experiment termination ([1]; A431 xenograft nude mice) | tumor inhibition rate ([1]; A431 xenograft, 200 mg/kg oral gavage once daily (later reduced to 100 mg/kg)) [%] | animals died ([1]; after 5 days at 200 mg/kg) | The area under the concentration-time curve (0-infinity) [2] | The area under the concentration-time curve (0-t) [2]
1 | C#Cc1cccc(Nc2ncnc3cc(OCCOC)c(OCCOC)cc23)c1 [erlotinib, Erlotinib Hydrochloride, reference compound] | lost weight and appeared sluggish | 77.6 | 3 of 8 | – | –
2 | C#Cc1cccc(Nc2ncnc3cc4c(cc23)OCCOCCOCCO4)c1 [Free base, 4-[(3-ethynyl-phenyl)amino]-6,7-benzo-12-crown-quinazoline, reference compound] | – | – | – | 29.36 | 28.83
